# Reference: ChEMBL document CHEMBL1137170, “Synthesis, biophysical and biological evaluation of 3,6-bis-amidoacridines with extended 9-anilino substituents as potent G-quadruplex-binding telomerase inhibitors” (Bioorg Med Chem Lett, 2004)
# Legend:
# [1] = target: Telomerase reverse transcriptase (Homo sapiens, UniProt O14746); assay: Effective concentration against telomerase by TRAP
# [2] = test system: Nucleic Acid; assay: Concentration required for G4-stabilisation in FRET assay; format: functional
# Sequence of Telomerase reverse transcriptase (O14746 whole entry): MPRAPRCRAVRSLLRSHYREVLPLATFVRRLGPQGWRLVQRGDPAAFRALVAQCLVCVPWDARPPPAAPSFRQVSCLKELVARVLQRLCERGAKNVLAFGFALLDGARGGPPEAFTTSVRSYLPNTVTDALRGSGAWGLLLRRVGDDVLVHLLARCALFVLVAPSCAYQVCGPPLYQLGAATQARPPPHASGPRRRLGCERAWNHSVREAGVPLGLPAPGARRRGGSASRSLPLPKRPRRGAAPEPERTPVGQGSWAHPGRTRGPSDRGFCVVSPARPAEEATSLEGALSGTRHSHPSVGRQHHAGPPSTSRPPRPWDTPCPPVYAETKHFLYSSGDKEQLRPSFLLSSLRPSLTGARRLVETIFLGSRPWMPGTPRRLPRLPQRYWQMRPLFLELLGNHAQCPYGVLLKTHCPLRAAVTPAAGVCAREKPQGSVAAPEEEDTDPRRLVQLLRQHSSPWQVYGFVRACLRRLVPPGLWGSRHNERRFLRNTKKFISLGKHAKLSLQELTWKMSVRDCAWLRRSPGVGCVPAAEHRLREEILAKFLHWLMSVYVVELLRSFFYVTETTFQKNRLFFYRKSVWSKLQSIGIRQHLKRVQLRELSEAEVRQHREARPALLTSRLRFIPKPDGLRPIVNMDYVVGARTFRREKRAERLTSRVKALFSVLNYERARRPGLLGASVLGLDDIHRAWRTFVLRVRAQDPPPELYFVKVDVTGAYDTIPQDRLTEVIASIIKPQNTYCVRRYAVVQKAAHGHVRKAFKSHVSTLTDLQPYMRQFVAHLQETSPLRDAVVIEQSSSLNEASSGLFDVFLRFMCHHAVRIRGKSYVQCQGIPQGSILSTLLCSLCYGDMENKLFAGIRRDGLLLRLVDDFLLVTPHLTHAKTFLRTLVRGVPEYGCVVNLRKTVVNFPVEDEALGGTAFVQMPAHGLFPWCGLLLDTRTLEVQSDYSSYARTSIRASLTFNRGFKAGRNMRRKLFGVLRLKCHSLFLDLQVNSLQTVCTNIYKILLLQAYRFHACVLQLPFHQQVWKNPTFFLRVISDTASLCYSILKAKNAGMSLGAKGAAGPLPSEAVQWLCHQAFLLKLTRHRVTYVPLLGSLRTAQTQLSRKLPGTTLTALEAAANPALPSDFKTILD
smiles,measurement,setting,value
CN(C)c1ccc(Nc2c3ccc(NC(=O)CCN4CCCC4)cc3nc3cc(NC(=O)CCN4CCCC4)ccc23)cc1,EC50,[1],0.113 µM
same,Concentration,[2],0.72 µM
O=C(CCCCC(=O)N1CCCC1)Nc1ccc(Nc2c3ccc(NC(=O)CCN4CCCC4)cc3nc3cc(NC(=O)CCN4CCCC4)ccc23)cc1,EC50,[1],0.318 µM
same,Concentration,[2],0.72 µM
O=C(CCCCC(=O)N1CCOCC1)Nc1ccc(Nc2c3ccc(NC(=O)CCN4CCCC4)cc3nc3cc(NC(=O)CCN4CCCC4)ccc23)cc1,EC50,[1],0.267 µM
same,Concentration,[2],0.54 µM
CCN(CC)CCNC(=O)CCCCC(=O)Nc1ccc(Nc2c3ccc(NC(=O)CCN4CCCC4)cc3nc3cc(NC(=O)CCN4CCCC4)ccc23)cc1,EC50,[1],0.098 µM
same,Concentration,[2],0.46 µM
CCN(CC)CCCCCCNC(=O)CCCCC(=O)Nc1ccc(Nc2c3ccc(NC(=O)CCN4CCCC4)cc3nc3cc(NC(=O)CCN4CCCC4)ccc23)cc1,EC50,[1],0.08 µM
same,Concentration,[2],0.49 µM
CN1CCN(C(=O)CCCCC(=O)Nc2ccc(Nc3c4ccc(NC(=O)CCN5CCCC5)cc4nc4cc(NC(=O)CCN5CCCC5)ccc34)cc2)CC1,EC50,[1],0.165 µM
same,Concentration,[2],0.59 µM
